The source of these data is patent publication US12509459B2, “Inhibitors of NLRP3 inflammasome” (BioAge Labs, Inc., priority 2024, dated 2025).

One assay has as its system foot gout mouse model. In words: Foot gout mouse model. It is filed as in vivo. The settings on record: for swelling: FIG. 16 and FIG. 17.
A further assay concerns DIO mice. In words: Diet-induced obesity (DIO) mouse model. It is filed as in vivo. The settings on record: for Day 14 BW % change vs. baseline / Day 28 BW % change vs. DIO/VEH / Day 28 BW % change vs. baseline: po; for fat mass: FIG. 15; for body weight of high fat DIO mice / food consumption of high fat DIO mice: summary, comparable to the effect of Semaglutide.
A further assay deals with NLRP3 (Homo sapiens, UniProt Q96P20). In words: THP-1 cell-based NLRP3 activation assay. Further details: endogenous in cells; host or cells: THP-1 cells (PMA-differentiated, LPS-primed, nigericin-stimulated). The settings on record: PMA-differentiated THP-1 cells, LPS 100 ng/mL then 10 μM nigericin. A digest of the protocol: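 After 30 min compound preincubation, inflammasome activation was triggered with 10 μM nigericin (1 h) in LPS-primed (100 ng/mL, 3 h) THP-1 cells differentiated with PMA at 20 nM/24 h or 500 nM/3 h. CellTiter-Glo measured residual cell viability.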

Where [1] appears, read: Compound 096/211 study, FIGS. 14A and 14B.
[2] abbreviates: DIO mice, Compound 096/211 study, FIG. 14.
[3] abbreviates: DIO mice, Compound 096/211 study.
Setting [4] is: DIO mice, 5 to 100/75 mpk QD PO, FIG. 10.
The mark [5] stands for this setting: DIO mice, 100/75 mpk, qd (75 mpk since day 9).
Setting [6] is: DIO mice, doses of 50 mpk or higher, FIG. 11.
Setting [7] is: DIO mice, doses of 50 mpk or higher, treatment for 4 weeks, FIG. 13.

NLRP3, sequence (Q96P20 whole entry): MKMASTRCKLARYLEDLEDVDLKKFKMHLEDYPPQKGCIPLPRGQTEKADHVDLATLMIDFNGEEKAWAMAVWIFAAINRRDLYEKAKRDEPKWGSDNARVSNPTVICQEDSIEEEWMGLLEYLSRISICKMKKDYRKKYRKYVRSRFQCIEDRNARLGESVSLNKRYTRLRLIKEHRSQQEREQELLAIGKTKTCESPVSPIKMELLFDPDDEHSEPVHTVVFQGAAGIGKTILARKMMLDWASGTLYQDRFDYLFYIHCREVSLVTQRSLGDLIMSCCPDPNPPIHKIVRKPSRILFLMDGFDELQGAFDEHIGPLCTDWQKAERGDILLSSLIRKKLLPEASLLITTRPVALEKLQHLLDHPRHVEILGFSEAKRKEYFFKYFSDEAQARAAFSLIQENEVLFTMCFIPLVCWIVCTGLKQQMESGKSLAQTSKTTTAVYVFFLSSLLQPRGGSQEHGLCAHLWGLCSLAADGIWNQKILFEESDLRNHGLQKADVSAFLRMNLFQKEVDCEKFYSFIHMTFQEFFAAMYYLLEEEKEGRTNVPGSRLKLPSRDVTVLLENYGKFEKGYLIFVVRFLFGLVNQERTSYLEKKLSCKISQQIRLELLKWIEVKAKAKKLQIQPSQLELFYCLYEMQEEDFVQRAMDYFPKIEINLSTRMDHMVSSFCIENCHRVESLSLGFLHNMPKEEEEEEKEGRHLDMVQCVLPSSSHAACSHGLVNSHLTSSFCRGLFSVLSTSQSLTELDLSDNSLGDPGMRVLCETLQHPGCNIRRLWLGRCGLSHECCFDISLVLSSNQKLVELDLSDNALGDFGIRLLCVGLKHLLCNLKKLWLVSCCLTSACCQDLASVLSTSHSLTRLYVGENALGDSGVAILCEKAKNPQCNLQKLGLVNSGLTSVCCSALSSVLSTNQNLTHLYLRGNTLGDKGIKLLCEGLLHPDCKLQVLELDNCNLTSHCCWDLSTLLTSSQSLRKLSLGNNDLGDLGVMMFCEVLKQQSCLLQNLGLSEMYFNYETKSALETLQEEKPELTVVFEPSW

The term IC50 denotes the concentration needed to halve the response being measured. Higher therefore signals a need for much substance. As to `CCOc1cc(C(=O)N(C)[C@H](CCN(C)C)c2cncc3cn[nH]c23)ccc1-c1ccccc1` [Compound 096], the swelling result in the assay on foot gout mouse model is “reduce swelling in a foot gout mouse model in a dose dependent manner”. In addition, in the assay on DIO mice (setting [1]), the “body weight of DIO mice” value was “dose-dependent effect on reducing body weight”. Further, the “Day 14 BW % change vs. baseline” value in the assay with DIO mice (DIO mice, 50 mpk, qd) was −11.9%. For the same compound, in the assay with DIO mice (setting [2]), the food consumption result is reported as “dose-dependent effect on reducing food consumption”. In addition, the fat mass entry with DIO mice (setting [3]) is listed as “caused a change in fat mass”. In the assay on DIO mice, the “body weight of high fat DIO mice” value is given as “significantly reduced” and the “food consumption of high fat DIO mice” value was “significantly reduced”. Also, at NLRP3, the IC50 was less than 100 nM.

On to `[2H]C([2H])([2H])N(CC[C@H](c1cncc2cn[nH]c12)N(C)C(=O)c1ccc(-c2cccc(F)c2)c(OCC)c1)C([2H])([2H])[2H]` [Compound 211], for which the “body weight of DIO mice” value with DIO mice (setting [1]) was “dose-dependent effect on reducing body weight”. In addition, in the assay with DIO mice (DIO mice, 50 mpk, qd), the “Day 14 BW % change vs. baseline” value was −14.9%. Also, the food consumption entry in the assay with DIO mice (setting [2]) is “dose-dependent effect on reducing food consumption”. Moreover, the fat mass result in the assay on DIO mice (setting [3]) was “caused a change in fat mass”. Moreover, in the assay with DIO mice, the “body weight of high fat DIO mice” value is “significantly reduced” and the “food consumption of high fat DIO mice” value is given as “significantly reduced”. On NLRP3, the IC50 was less than 100 nM.

`CCOc1cc(C(=O)N(C)[C@H](CCN(C)C)c2cncc3cn[nH]c23)ccc1-c1cccc(F)c1` [Compound 040]: in the assay on foot gout mouse model, the “treatment mode in foot gout model” value was “can be used as both a preventative and therapeutic treatment”; the swelling result is on record as “reduce swelling in a foot gout mouse model in a dose dependent manner”. In addition, the “body weight of DIO mice” value in the assay on DIO mice (5 to 100/75 mpk QD PO, FIG. 8) was “dose-dependent effect on reducing body weight”. Further, in the assay with DIO mice (DIO mice, 5 mpk, qd), the “Day 28 BW % change vs. DIO/VEH” value is given as 0.6% and the “Day 28 BW % change vs. baseline” value is recorded as 4.6%. The food consumption entry in the assay with DIO mice (DIO mice, 5 to 100/75 mpk QD PO, FIG. 9) was “dose-dependent effect on reducing food consumption”. Further, in the assay on DIO mice (setting [4]), the “fat mass to body weight percentage” value is “dose-dependent effect on reducing fat mass to body weight percentage” and the “lean mass to body weight percentage” value is given as “maintaining lean mass to body weight percentage”. In addition, in the assay with DIO mice (DIO mice, 20 mpk, qd), the “Day 28 BW % change vs. DIO/VEH” value is −2.7% and the “Day 28 BW % change vs. baseline” value is recorded as 1.3%. For the same compound, in the assay on DIO mice (DIO mice, 50 mpk, qd), the “Day 28 BW % change vs. DIO/VEH” value is −11.6% and the “Day 28 BW % change vs. baseline” value is given as −7.6%. Besides, in the assay with DIO mice (setting [5]), the “Day 28 BW % change vs. DIO/VEH” value is on record as −22.0% and the “Day 28 BW % change vs. baseline” value is given as −17.9%. Moreover, the “inguinal fat to body weight percentage or muscle tissues to body weight percentage” value in the assay with DIO mice (DIO mice, compared with Semaglutide treated mice, FIG. 13) was “no significant difference from Semaglutide treated mice”. In the assay on DIO mice (setting [6]), the fasting glucose result is listed as “significantly reduced fasting glucose” and the insulin sensitivity entry was “improved insulin sensitivity”. Further, in the assay with DIO mice (setting [7]), the inguinal fat weight entry is on record as “significantly reduced” and the liver weight entry is listed as “significantly reduced”. In the assay on DIO mice, the “body weight of high fat DIO mice” value was “significantly reduced” and the “food consumption of high fat DIO mice” value is on record as “significantly reduced”. Also, the IC50 on NLRP3 is less than 100 nM.

Turning to `CCOc1cc(C(=O)N(C)[C@@H](CN(C)C)c2cncc3cn[nH]c23)ccc1-c1cccc(F)c1` [Compound 122], the IC50 at NLRP3 lay within 500 to 1000 nM.

On NLRP3, `CCOc1cc(C(=O)N(C)[C@H](CCN(C)CCOC)c2cncc3cn[nH]c23)ccc1-c1cccc(F)c1` [Compound 263] yielded an IC50 of less than 100 nM.

Turning to `CCOc1cc(C(=O)N(C)[C@H](CO)c2cncc3cn[nH]c23)ccc1-c1cc(C)cc(F)c1` [Compound 003], the IC50 on NLRP3 is less than 100 nM.

`CCOc1cc(C(=O)N(C)[C@@H](c2cncc3cn[nH]c23)C2CN(CC)C2)ccc1-c1cccc(Cl)c1` [Compound 172] registered an IC50 at NLRP3 of less than 100 nM.

Compound `CCOc1cc(C(=O)N(C)[C@H](CCN2C[C@@H](F)[C@H](F)C2)c2cncc3cn[nH]c23)ccc1-c1cccc(F)c1` [Compound 093] had an IC50 against NLRP3 of less than 100 nM.

`CCOc1cc(C(=O)N(C)[C@H](C[C@H](C)O)c2cncc3cn[nH]c23)ccc1-c1cccc(Cl)c1` [Compound 008]: at NLRP3, the IC50 was 1000 to 15000 nM.

At NLRP3, `CCOc1cc(C(=O)N(C)[C@H](CCN(C)C)c2cncc3cn[nH]c23)ccc1-c1cc(F)cc(C#N)c1` [Compound 279] yielded an IC50 of less than 100 nM.

`CCOc1cc(C(=O)N(C)[C@H](CCN(CC)CC)c2cccc3cn[nH]c23)ccc1-c1cccc(F)c1` [Compound 215] registered an IC50 against NLRP3 of less than 100 nM.

Consider `CCOc1cc(C(=O)N(C)[C@H](CCN2CC(F)(F)C2)c2cncc3cn[nH]c23)ccc1-c1cccc(F)c1` [Compound 101], for which the IC50 at NLRP3 is less than 100 nM.

Compound `CCOc1cc(C(=O)N(C)[C@H](CCN(C)C)c2cnc(C)c3cn[nH]c23)ccc1-c1cccc(Cl)c1` [Compound 076] came in with an IC50 against NLRP3 of less than 100 nM.

Consider `CCOc1cc(C(=O)N(Cc2cnc(C)c3cn[nH]c23)C2COC2)ccc1-c1cccc(F)c1` [Compound 054], for which the IC50 against NLRP3 was more than 15000 nM.

Take `CCOc1cc(C(=O)N(C)[C@H](c2cccc3cn[nH]c23)C2CN(C)C2)ccc1-c1cccc(F)c1` [Compound 298]: at NLRP3, the IC50 is less than 100 nM.

On to `CCOc1cc(C(=O)N(C)[C@@H](CN(C)C)c2cncc3cn[nH]c23)ccc1C(C)C` [Compound 209], for which the IC50 at NLRP3 was less than 100 nM.

Take `CCOc1cc(C(=O)N(C)[C@H](CCN(C)CC(F)F)c2cncc3cn[nH]c23)ccc1-c1cccc(F)c1` [Compound 094]: at NLRP3, the IC50 is less than 100 nM.

Take `CCOc1cc(C(=O)N(C)[C@H](CCN(C)C)c2cccc3cn[nH]c23)ccc1-c1cccc(F)c1` [Compound 186]: the IC50 against NLRP3 is less than 100 nM.

On NLRP3, `CCOc1cc(C(=O)N(C)[C@H](c2cncc3cn[nH]c23)C2CNC2)ccc1-c1cccc(C#N)c1` [Compound 142] returned an IC50 of 1000 to 15000 nM.

As to `CCOc1cc(C(=O)N(C)[C@@H](c2cncc3cn[nH]c23)C2CN(C(C)C)C2)ccc1-c1cccc(F)c1` [Compound 175], at NLRP3, the IC50 was less than 100 nM.

Compound `CN(C)CC[C@H](c1cccc2cn[nH]c12)N(C)C(=O)c1ccc(-c2cccc(F)c2)c(OC2CC2)c1` [Compound 198] had an IC50 at NLRP3 of less than 100 nM.

Regarding `CCOc1cc(C(=O)N(C)[C@H](CCN(C)C)c2cccc3cn[nH]c23)ccc1-c1cc(F)cc(F)c1` [Compound 219], at NLRP3, the IC50 is less than 100 nM.

`CCOc1cc(C(=O)N(C)[C@H](c2cnc(C)c3cn[nH]c23)C2CN(C)C2)ccc1-c1cccc(F)c1` [Compound 065] had an IC50 on NLRP3 of less than 100 nM.

Turning to `CCOc1cc(C(=O)N(C)[C@H](CCN(C)CCCF)c2cncc3cn[nH]c23)ccc1-c1cccc(F)c1` [Compound 137], on NLRP3, the IC50 was less than 100 nM.

Consider `CCOc1cc(C(=O)N(C)[C@@H](c2cncc3cn[nH]c23)[C@H]2CCNC2)ccc1-c1cccc(F)c1` (single isomer, unassigned) [Compound 089], for which the IC50 against NLRP3 is less than 100 nM.

Take `CCOc1cc(C(=O)N(C[C@@H](C)O)[C@@H](C)c2cnc(C)c3cn[nH]c23)ccc1-c1cccc(F)c1` [Compound 060]: the IC50 against NLRP3 is more than 15000 nM.

As for `CCOc1cc(C(=O)N(C[C@H](C)O)[C@H](C)c2cnc(C)c3cn[nH]c23)ccc1-c1cccc(F)c1` [Compound 059], the IC50 at NLRP3 was in the range of 1000 to 15000 nM.

Take `CCOc1cc(C(=O)N(C)[C@H](CC[N+](C)(C)[O-])c2cccc3cn[nH]c23)ccc1-c1cccc(Cl)c1` [Compound 206]: at NLRP3, the IC50 is less than 100 nM.
